For 1 compound, inhibition results are on record in publication PMC6934184, “Selective DNA-PKcs inhibition extends the therapeutic index of localized radiotherapy and chemotherapy” (The Journal of Clinical Investigation, 2019).

The test deals with T1, FGFR4 (Homo sapiens, UniProt P22455).
T1 construct: purchased Thermo Fisher Scientific (Life Technologies) SelectScreen
The experiment in a line: SelectScreen Z'LYTE. The test is classed as biochemical. A digest of the protocol: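 Percent values come from Thermo SelectScreen profiling of NU5455, combining activity and binding assays. CSF1R was run in Z'LYTE format at Km app ATP, and CAMK1 in Adapta format with ATP listed at 10.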

T1 sequence (P22455 22-802): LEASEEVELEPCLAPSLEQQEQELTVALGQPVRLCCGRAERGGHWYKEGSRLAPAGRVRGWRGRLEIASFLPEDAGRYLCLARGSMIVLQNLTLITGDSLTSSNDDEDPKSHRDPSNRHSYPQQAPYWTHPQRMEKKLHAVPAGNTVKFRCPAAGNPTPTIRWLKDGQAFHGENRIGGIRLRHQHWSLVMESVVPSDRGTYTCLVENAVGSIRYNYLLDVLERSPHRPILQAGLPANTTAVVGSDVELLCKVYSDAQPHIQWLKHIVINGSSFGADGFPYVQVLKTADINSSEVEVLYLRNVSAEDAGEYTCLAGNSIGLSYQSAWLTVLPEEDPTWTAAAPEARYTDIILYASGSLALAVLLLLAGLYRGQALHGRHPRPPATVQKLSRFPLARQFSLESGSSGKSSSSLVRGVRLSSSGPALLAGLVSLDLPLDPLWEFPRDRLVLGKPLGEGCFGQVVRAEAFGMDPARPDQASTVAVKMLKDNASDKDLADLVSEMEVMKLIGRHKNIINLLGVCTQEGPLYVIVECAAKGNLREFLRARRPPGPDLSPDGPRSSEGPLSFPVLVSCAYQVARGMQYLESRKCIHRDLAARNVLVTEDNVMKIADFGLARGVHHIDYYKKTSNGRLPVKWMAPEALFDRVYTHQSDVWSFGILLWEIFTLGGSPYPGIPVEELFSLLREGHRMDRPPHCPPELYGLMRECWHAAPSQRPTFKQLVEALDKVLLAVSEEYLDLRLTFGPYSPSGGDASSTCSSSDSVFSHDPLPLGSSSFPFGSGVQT

For the compound `CN(C(=O)CN1CCOCC1)c1ccc2sc3c(-c4cccc5c(=O)cc(N6CC7CCC(C6)O7)oc45)cccc3c2c1` [NU5455], the inhibition at 1 µM is -3.1%.

By inhibition is commonly meant the drop in the measured response relative to a control, in per cent.
